The text below walks through data of US20210255184A1, “Biosensor Device and Methods” (The New Zealand Institute for Plant and Food Research …, priority 2018, published 2021).

Molecules are shown by their SMILES. “Also recorded” adds a separate entry of the source.

Holding throughout (type): biochemical
Assay [1] in a line: EIS sensor, empty liposomes (specificity control). The note with it: empty liposomes without receptor. As to the method:
PBS solution was prepared by immersing one tablet of PBS in 200 ml of milli-Q water (according to manufacturers instructions) and filtered using 0.2-μm syringe filter. The pH of the prepared buffer solution was measured with a pH meter. OrX liposomes or OrX/Orco liposomes were diluted 100 fold in PBS buffer solution (pH=7.4) and the COOH-activated electrodes were incubated in that buffer solution at room temperature for one hour. Then, the electrodes were washed extensively with PBS buffer solution to wash out any unbound liposomes.
PBS (pH=7.4) was used as an electrolyte to conduct electrochemical measurements. PBS buffer was degassed for about 30 minutes prior to electrochemical measurements. Odorant solutions of concentration ranging from 1 aM to 1 μM were prepared by sequential dilution in PBS solution containing 1% DMSO. OR immobilized electrodes were incubated in relevant odorant solution for ˜30 minutes each and washed gently with PBS before EIS measurements.
EIS measurements were done in a 3 electrode cell containing Ag/AgCl (3 M NaCl, 0.209 V vs. SHE) reference electrode, coiled platinum wire as a counter electrode and the gold disk as a working electrode at a fixed voltage of −0.7 using PalmSens potentiostat. Degassed PBS was used as an electrolyte.
EIS measurements were performed on gold electrodes functionalised with OrX liposomes (either Or10a or Or22a), OrX/Orco liposomes, or empty liposomes prior to and after target ligand or control ligand incubation with increasing concentrations (1 aM to 100 μM). Dose response curves were obtained by defining sensor response as −(ΔRp/R^op) versus log[C(Ligand)]. FIG. 4a presents the EIS response in terms of Nyquist plot for the Or10a liposome functionalized sensors when exposed to a solution containing one of the known target ligands of Or10a, methyl salicylate, at various concentrations. […] The dose response curve (FIG. 4b) was obtained by plotting the change in polarization resistance −(ΔRp/R^op) versus log[conc(Ligand)], as the sensor response. […]

Assay [2] deals with T1, Orco (Drosophila melanogaster, UniProt Q9VNB5).
T1 construct: his-tag; made in house; host or cells: baculovirus-infected Sf9 cells
T1 sequence (Q9VNB5 1-486): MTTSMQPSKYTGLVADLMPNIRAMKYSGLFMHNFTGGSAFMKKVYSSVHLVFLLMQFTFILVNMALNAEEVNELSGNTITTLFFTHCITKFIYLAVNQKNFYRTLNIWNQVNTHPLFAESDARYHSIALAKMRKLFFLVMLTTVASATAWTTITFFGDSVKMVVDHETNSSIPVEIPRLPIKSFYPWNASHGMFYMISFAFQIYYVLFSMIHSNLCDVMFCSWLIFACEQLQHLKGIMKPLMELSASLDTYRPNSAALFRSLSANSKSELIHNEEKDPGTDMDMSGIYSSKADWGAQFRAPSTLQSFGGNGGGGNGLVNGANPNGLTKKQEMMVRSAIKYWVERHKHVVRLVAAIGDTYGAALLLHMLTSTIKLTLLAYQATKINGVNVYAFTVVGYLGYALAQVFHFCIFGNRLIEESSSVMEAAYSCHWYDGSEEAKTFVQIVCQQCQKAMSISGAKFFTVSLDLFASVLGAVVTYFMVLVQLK
The experiment in a line: EIS sensor, Orco liposomes (specificity control). The note with it: Orco only liposomes. On the procedure: Prior to their use, liposomes were defrosted on ice and then destabilized by incubating with 0.2% CHAPS for 15 min at room temperature. Then 200 μg of purified odorant receptor^28 was added to 1 mg of liposomes and rotated at 10 rpm for 1 h at room temperature. Excess detergent was removed by four additions of 25 mg of Bio-Beads SM-2 (Bio-Rad, USA) and incubation at 4° C. for 30 min, 2 h, overnight and a further 2 h respectively. The Bio-Beads were removed after each incubation period. The OrX or OrX/Orco integrated liposomes were pelleted by centrifugation at 100,000 g for 1 h, and were resuspended in 500 μL of rehydration buffer. Integration of OrXs and Orco into liposomes was assessed by density gradient ultracentrifugation (DGU) using Accudenz (Accurate Chemical & Scientific Corporation, USA). The integrated liposomes were brought to 40% Accudenz by the addition of an equal volume of 80% Accudenz solution, placed at the bottom of an ultra-centrifugation tube, and overlaid with 30% Accudenz solution, and DGU buffer (25 mM HEPES pH 7.5, 100 mM NaCl, 10% glycerol). The sample was then centrifuged at 100,000 g for 4 h at 4° C. […]
PBS solution was prepared by immersing one tablet of PBS in 200 ml of milli-Q water (according to manufacturers instructions) and filtered using 0.2-μm syringe filter. The pH of the prepared buffer solution was measured with a pH meter. […]

Assay [3] deals with T2, Or10a (Drosophila melanogaster, UniProt Q9VYZ1).
T2 construct: his-tag; made in house; host or cells: baculovirus-infected Sf9 cells
T2 sequence (Q9VYZ1 1-406): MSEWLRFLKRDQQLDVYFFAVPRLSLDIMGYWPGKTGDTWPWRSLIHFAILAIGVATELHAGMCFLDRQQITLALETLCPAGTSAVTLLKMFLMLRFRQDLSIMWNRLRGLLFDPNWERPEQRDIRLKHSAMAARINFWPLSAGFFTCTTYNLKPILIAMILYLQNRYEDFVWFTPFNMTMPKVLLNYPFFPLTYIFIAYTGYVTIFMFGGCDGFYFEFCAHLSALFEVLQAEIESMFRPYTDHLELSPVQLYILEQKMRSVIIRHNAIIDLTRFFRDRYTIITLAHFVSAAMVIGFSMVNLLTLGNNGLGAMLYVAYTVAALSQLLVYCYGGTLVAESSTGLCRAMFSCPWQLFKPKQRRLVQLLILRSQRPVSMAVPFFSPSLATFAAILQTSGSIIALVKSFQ
Description: QCM-D sensor, Or10a liposomes. The note with it: 1.6 to 1000 μM in PBS with 1% DMSO. As to the method: (§1) Gold (100 nm) sensor crystals were sonicated in ethanol and milli-Q water for 15 minutes each respectively. A 5:1:1 volume ratio of milli-Q water, ammonia (25%), and hydrogen peroxide (30%) was heated to 75° C. for 5 minutes and the sonicated crystals were placed in the heated solution for 5 minutes. Then the crystals were removed from the solution and rinsed with milli-Q water before drying with nitrogen gas. The clean gold crystals were thiol-functionalized by exposing them to 2 mM ethanolic solution of MHA overnight followed by washing with ethanol solution in order to remove excess or loosely bound molecules. NHS/EDC was prepared using 2:1 mol:mol ratio of EDC:NHS (100 mM EDC, 50 mM NHS) in 2 ml PBS (pH=6.5) solution. Each OrX/liposome stock solution was diluted 100 fold for QCM-D measurements in PBS buffer solution (pH=7.4). The SAM functionalized crystals were then placed into the Q-sense analyser instrument (Biolin Scientific) chamber and flowed with the NHS/EDC, Or10a/liposomes or Or10a/Orco liposomes, and various concentrations of methyl hexanoate (1.6 μM, 8 μM, 20 μM, 40 μM, 100 μM, 200 μM, 500 μM and 1000 μM) in PBS buffer solution containing 1% DMSO to measure the changes in frequency (Δf) and dissipation (ΔD) values.

The target in assay [4] is T3, Or10a/Orco (Drosophila melanogaster, UniProt Q9VYZ1).
T3 construct: his-tag; made in house; host or cells: baculovirus-infected Sf9 cells
T3 sequence (Q9VYZ1 1-406): T2 sequence (Q9VYZ1 1-406)
T3 sequence (Q9VNB5 1-486 partner): T1 sequence (Q9VNB5 1-486)
The experiment in a line: QCM-D sensor, Or10a/Orco liposomes. Conditions: 1.6 to 1000 μM in PBS with 1% DMSO. On the procedure:
as §1

As for `CCCCCC(=O)OC` [methyl hexanoate], the “sensor response to ligand” value in assay [1] and in assay [2] was “negligible response” each time. Besides, the “change in oscillation frequency on ligand exposure” value in assay [3] and in assay [4] was “negligible response; also recorded: not observed” each time.

Regarding `COC(=O)c1ccccc1O` [methyl salicylate], the “sensor response to ligand” value in assay [1] and in assay [2] was “negligible response” each time. The “change in oscillation frequency on ligand exposure” value in assay [3] is “increase in the frequency”; in assay [4], “greater response; also recorded: increase in the frequency”.
